In patent publication US20250144223A1, “PROTEIN DEGRADATION COMPOUND BASED ON NAMPT TARGET PROTEIN AND APPLICATION THEREOF” (GLUETACS THERAPEUTICS (SHANGHAI) CO., LTD., priority 2021, published 2025):

test system: Jurkat; experiment: CellTiter-Glo Luminescent Cell Viability Assay, half inhibitory concentration (IC50) on tumor cell proliferation; assay type: cell-based; conditions: Homo sapiens, Jurkat cells, 72 h treatment
Procedure: The tumor cells used herein were cultured in a cell culture medium at 37° C. in an incubator with 5% CO2, where the cell culture medium was supplemented with 10% FBS, as well as penicillin at a final concentration of 100 U/mL and streptomycin at a final concentration of 100 μg/mL. Prior to experimentation, all cells used were identified as correct cells by STR cells, and were negative for mycoplasma through routine testing.
IC50 values of the compounds of the present disclosure (including the compounds in Table 1 and compounds of examples) were measured using the CellTiter-Glo® Luminescent Cell Viability Assay kit from Promega Corporation. Assay details are as follows: Cells were seeded in 100 μL RPMI1640 medium containing serum at a density of 20,000 cells/well. After 24 h, the inoculated cells were treated with the compounds of the present disclosure which were serially diluted. After the cells were treated with the compounds of the present disclosure for 72 h, the CellTiter-Glo® reagent was added to the culture medium for cell viability assessment according to the instructions provided with the kit. DMSO served as the negative control, and FK866 inhibitor was used as the positive control, both treated with the same protocol as the compounds of the present disclosure. The growth inhibition of the compounds of the present disclosure on cells was plotted by Prism Graphpad software, and the IC50 values of the compounds of the present disclosure were calculated therefrom.

O=C(/C=C/c1cccnc1)NCCCCC1CCN(C(=O)c2ccc(N3CCN(C(=O)COCCOCCOCCOCCOCCSc4cccc5c4CN(C4CCC(=O)NC4=O)C5=O)CC3)cc2)CC1 (stereo not drawn) [SIAIS631118, (E)-N-(4-(1-(4-(4-(17-((2-(2,6-dioxopiperidin-3-yl)-1-oxoisoindolin-4-yl)thio)-3,6,9,12,15-pentaoxaheptadecanoyl)piperazin-1-yl)benzoyl)piperidin-4-yl)butyl)-3-(pyridin-3-yl)acrylamide] was tested. Which IC50 did it give?
Its IC50 is 66.6 nM.

Which IC50 does the source give for O=C(/C=C/c1cccnc1)NCCCCC1CCN(C(=O)c2ccc(N3CCN(CCCC#Cc4cccc5c4C(=O)N(C4CCC(=O)NC4=O)C5=O)CC3)cc2)CC1 (stereo not drawn) [SIAIS631119, (E)-N-(4-(1-(4-(4-(5-(2-(2,6-dioxopiperidin-3-yl)-1,3-dioxoisoindolin-4-yl)pent-4-yn-1-yl)piperazin-1-yl)benzoyl)piperidin-4-yl)butyl)-3-(pyridin-3-yl)acrylamide] here?
The IC50 was 623 nM.

O=C(/C=C/c1cccnc1)NCCCCC1CCN(C(=O)c2ccc(N3CCN(CCCCC#Cc4cccc5c4C(=O)N(C4CCC(=O)NC4=O)C5=O)CC3)cc2)CC1 (stereo not drawn) [SIAIS631120, (E)-N-(4-(1-(4-(4-(6-(2-(2,6-dioxopiperidin-3-yl)-1,3-dioxoisoindolin-4-yl)hex-5-yn-1-yl)piperazin-1-yl)benzoyl)piperidin-4-yl)butyl)-3-(pyridin-3-yl)acrylamide] was tested. Which IC50 did it give?
The IC50 was 71 nM.

O=C(/C=C/c1cccnc1)NCCCCC1CCN(C(=O)c2ccc(N3CCN(CCCCCCC#Cc4cccc5c4C(=O)N(C4CCC(=O)NC4=O)C5=O)CC3)cc2)CC1 (stereo not drawn) [SIAIS631121, (E)-N-(4-(1-(4-(4-(8-(2-(2,6-dioxopiperidin-3-yl)-1,3-dioxoisoindolin-4-yl)oct-7-yn-1-yl)piperazin-1-yl)benzoyl)piperidin-4-yl)butyl)-3-(pyridin-3-yl)acrylamide] was tested. Which IC50 did it give?
The IC50 was 63.9 nM.

With O=C(/C=C/c1cccnc1)NCCCCC1CCN(C(=O)c2ccc(N3CCC(N4CCNCC4)CC3)nn2)CC1 [SIAIS631135, (E)-N-(4-(1-(6-(4-(piperazin-1-yl)piperidin-1-yl)pyridazine-3-carbonyl)piperidin-4-yl)butyl)-3-(pyridin-3-yl)acrylamide] as the compound, how does the IC50 read?
Its IC50 is 725 nM.

For O=C(/C=C/c1cccnc1)NCCCCC1CCN(C(=O)c2ccc(C3CCN(CCCCCC#Cc4cccc5c4CN(C4CCC(=O)NC4=O)C5=O)CC3)cc2)CC1 (stereo not drawn) [SIAIS631139, (E)-N-(4-(1-(4-(1-(7-(2-(2,6-dioxopiperidin-3-yl)-1-oxoisoindolin-4-yl)hept-6-yn-1-yl)piperidin-4-yl)benzoyl)piperidin-4-yl)butyl)-3-(pyridin-3-yl)acrylamide], which IC50 is on record?
The IC50 was 5.23 nM.

For O=C(/C=C/c1cccnc1)NCCCCC1CCN(C(=O)c2ccc(C3CCN(CCCCCCC#Cc4cccc5c4CN(C4CCC(=O)NC4=O)C5=O)CC3)cc2)CC1 (stereo not drawn) [SIAIS631140, (E)-N-(4-(1-(4-(1-(8-(2-(2,6-dioxopiperidin-3-yl)-1-oxoisoindolin-4-yl)oct-7-yn-1-yl)piperidin-4-yl)benzoyl)piperidin-4-yl)butyl)-3-(pyridin-3-yl)acrylamide], which IC50 is on record?
Its IC50 is 9.7 nM.

How did the IC50 turn out when O=C(/C=C/c1cccnc1)NCCCCC1CCN(C(=O)c2ccc(C3CCN(CCCCSc4cccc5c4CN(C4CCC(=O)NC4=O)C5=O)CC3)cc2)CC1 (stereo not drawn) [SIAIS631141, (E)-N-(4-(1-(4-(1-(4-((2-(2,6-dioxopiperidin-3-yl)-1-oxoisoindolin-4-yl)thio)butyl)piperidin-4-yl)benzoyl)piperidin-4-yl)butyl)-3-(pyridin-3-yl)acrylamide] was run?
Its IC50 is 5.36 nM.

O=C(/C=C/c1cccnc1)NCCCCC1CCN(C(=O)c2ccc(N3CCNCC3)nn2)CC1 [SIAIS632004, (E)-N-(4-(1-(6-(piperazin-1-yl)pyridazine-3-carbonyl)piperidin-4-yl)butyl)-3-(pyridin-3-yl)acrylamide] was tested. Which IC50 did it give?
The IC50 was 362 nM.

For O=C(/C=C/c1cccnc1)NCCCCC1CCN(C(=O)c2ccc(N3CCC(N4CCN(CCCCCC#Cc5cccc6c5CN(C5CCC(=O)NC5=O)C6=O)CC4)CC3)nn2)CC1 (stereo not drawn) [SIAIS632005, (E)-N-(4-(1-(6-(4-(4-(7-(2-(2,6-dioxopiperidin-3-yl)-1-oxoisoindolin-4-yl)hept-6-yn-1-yl)piperazin-1-yl)piperidin-1-yl)pyridazine-3-carbonyl)piperidin-4-yl)butyl)-3-(pyridin-3-yl)acrylamide], which IC50 is on record?
Its IC50 is 3.98 nM.

Which IC50 does the source give for O=C(/C=C/c1cccnc1)NCCCCC1CCN(C(=O)c2ccc(N3CCC(N4CCN(CCCCCCC#Cc5cccc6c5CN(C5CCC(=O)NC5=O)C6=O)CC4)CC3)nn2)CC1 (stereo not drawn) [SIAIS632006, (E)-N-(4-(1-(6-(4-(4-(8-(2-(2,6-dioxopiperidin-3-yl)-1-oxoisoindolin-4-yl)oct-7-yn-1-yl)piperazin-1-yl)piperidin-1-yl)pyridazine-3-carbonyl)piperidin-4-yl)butyl)-3-(pyridin-3-yl)acrylamide] here?
The IC50 was 6.39 nM.

For O=C(/C=C/c1cccnc1)NCCCCC1CCN(C(=O)c2ccc(N3CCC(N4CCN(CCCCSc5cccc6c5CN(C5CCC(=O)NC5=O)C6=O)CC4)CC3)nn2)CC1 (stereo not drawn) [SIAIS632007, (E)-N-(4-(1-(6-(4-(4-(4-((2-(2,6-dioxopiperidin-3-yl)-1-oxoisoindolin-4-yl)thio)butyl)piperazin-1-yl)piperidin-1-yl)pyridazine-3-carbonyl)piperidin-4-yl)butyl)-3-(pyridin-3-yl)acrylamide], which IC50 is on record?
The IC50 was 3.59 nM.

For O=C(/C=C/c1cccnc1)NCCCCC1CCN(C(=O)c2ccc(N3CCN(CCCCCC#Cc4cccc5c4CN(C4CCC(=O)NC4=O)C5=O)CC3)nn2)CC1 (stereo not drawn) [SIAIS632010, (E)-N-(4-(1-(6-(4-(7-(2-(2,6-dioxopiperidin-3-yl)-1-oxoisoindolin-4-yl)hept-6-yn-1-yl)piperazin-1-yl)pyridazine-3-carbonyl)piperidin-4-yl)butyl)-3-(pyridin-3-yl)acrylamide], which IC50 is on record?
Its IC50 is 8.35 nM.

O=C(/C=C/c1cccnc1)NCCCCC1CCN(C(=O)c2ccc(N3CCN(CCCCCCC#Cc4cccc5c4CN(C4CCC(=O)NC4=O)C5=O)CC3)nn2)CC1 (stereo not drawn) [SIAIS632011, (E)-N-(4-(1-(6-(4-(8-(2-(2,6-dioxopiperidin-3-yl)-1-oxoisoindolin-4-yl)oct-7-yn-1-yl)piperazin-1-yl)pyridazine-3-carbonyl)piperidin-4-yl)butyl)-3-(pyridin-3-yl)acrylamide] was tested. Which IC50 did it give?
Its IC50 is 9.3 nM.

How did the IC50 turn out when O=C(/C=C/c1cccnc1)NCCCCC1CCN(C(=O)c2ccc(N3CCN(CCCCSc4cccc5c4CN(C4CCC(=O)NC4=O)C5=O)CC3)nn2)CC1 (stereo not drawn) [SIAIS632012, (E)-N-(4-(1-(6-(4-(4-((2-(2,6-dioxopiperidin-3-yl)-1-oxoisoindolin-4-yl)thio)butyl)piperazin-1-yl)pyridazine-3-carbonyl)piperidin-4-yl)butyl)-3-(pyridin-3-yl)acrylamide] was run?
The IC50 was 1.66 nM.

With O=C(/C=C/c1cccnc1)NCCCCC1CCN(C(=O)c2ccc(N3CCN(C(=O)CNc4cccc5c4CN(C4CCC(=O)NC4=O)C5=O)CC3)cc2)CC1 (stereo not drawn) [SIAIS632014, (E)-N-(4-(1-(4-(4-((2-(2,6-dioxopiperidin-3-yl)-1-oxoisoindolin-4-yl)glycyl)piperazin-1-yl)benzoyl)piperidin-4-yl)butyl)-3-(pyridin-3-yl)acrylamide] as the compound, how does the IC50 read?
Its IC50 is 6.81 nM.

With O=C(/C=C/c1cccnc1)NCCCCC1CCN(C(=O)c2ccc(N3CCN(C(=O)CCCNc4cccc5c4CN(C4CCC(=O)NC4=O)C5=O)CC3)cc2)CC1 (stereo not drawn) [SIAIS632015, (E)-N-(4-(1-(4-(4-(4-((2-(2,6-dioxopiperidin-3-yl)-1-oxoisoindolin-4-yl)amino)butanoyl)piperazin-1-yl)benzoyl)piperidin-4-yl)butyl)-3-(pyridin-3-yl)acrylamide] as the compound, how does the IC50 read?
The IC50 was 523 nM.

O=C(/C=C/c1cccnc1)NCCCCC1CCN(C(=O)c2ccc(N3CCN(C(=O)CCCCNc4cccc5c4CN(C4CCC(=O)NC4=O)C5=O)CC3)cc2)CC1 (stereo not drawn) [SIAIS632016, (E)-N-(4-(1-(4-(4-(5-((2-(2,6-dioxopiperidin-3-yl)-1-oxoisoindolin-4-yl)amino)pentanoyl)piperazin-1-yl)benzoyl)piperidin-4-yl)butyl)-3-(pyridin-3-yl)acrylamide] was tested. Which IC50 did it give?
Its IC50 is 64.4 nM.

With O=C(/C=C/c1cccnc1)NCCCCC1CCN(C(=O)c2ccc(N3CCN(C(=O)CCCCCNc4cccc5c4CN(C4CCC(=O)NC4=O)C5=O)CC3)cc2)CC1 (stereo not drawn) [SIAIS632017, (E)-N-(4-(1-(4-(4-(6-((2-(2,6-dioxopiperidin-3-yl)-1-oxoisoindolin-4-yl)amino)hexanoyl)piperazin-1-yl)benzoyl)piperidin-4-yl)butyl)-3-(pyridin-3-yl)acrylamide] as the compound, how does the IC50 read?
The IC50 was 21.2 nM.

With O=C(/C=C/c1cccnc1)NCCCCC1CCN(C(=O)c2ccc(N3CCN(C(=O)CCCCCCNc4cccc5c4CN(C4CCC(=O)NC4=O)C5=O)CC3)cc2)CC1 (stereo not drawn) [SIAIS632018, (E)-N-(4-(1-(4-(4-(7-((2-(2,6-dioxopiperidin-3-yl)-1-oxoisoindolin-4-yl)amino)heptanoyl)piperazin-1-yl)benzoyl)piperidin-4-yl)butyl)-3-(pyridin-3-yl)acrylamide] as the compound, how does the IC50 read?
Its IC50 is 55.5 nM.

With O=C(/C=C/c1cccnc1)NCCCCC1CCN(C(=O)c2ccc(N3CCN(C(=O)CSc4cccc5c4C(=O)N(C4CCC(=O)NC4=O)C5=O)CC3)cc2)CC1 (stereo not drawn) [SIAIS632027, (E)-N-(4-(1-(4-(4-(2-((2-(2,6-dioxopiperidin-3-yl)-1,3-dioxoisoindolin-4-yl)thio)acetyl)piperazin-1-yl)benzoyl)piperidin-4-yl)butyl)-3-(pyridin-3-yl)acrylamide] as the compound, how does the IC50 read?
Its IC50 is 294 nM.
